Assays:
[1] = target: T1, Telomerase reverse transcriptase (Homo sapiens, UniProt O14746); assay: Inhibition ratio of human telomerase was determined by stretch PCR assay with use of 100 uM of the ligand
[2] = target: T1, Telomerase reverse transcriptase; assay: Inhibitory concentration against human telomerase

T1 sequence (O14746 whole entry): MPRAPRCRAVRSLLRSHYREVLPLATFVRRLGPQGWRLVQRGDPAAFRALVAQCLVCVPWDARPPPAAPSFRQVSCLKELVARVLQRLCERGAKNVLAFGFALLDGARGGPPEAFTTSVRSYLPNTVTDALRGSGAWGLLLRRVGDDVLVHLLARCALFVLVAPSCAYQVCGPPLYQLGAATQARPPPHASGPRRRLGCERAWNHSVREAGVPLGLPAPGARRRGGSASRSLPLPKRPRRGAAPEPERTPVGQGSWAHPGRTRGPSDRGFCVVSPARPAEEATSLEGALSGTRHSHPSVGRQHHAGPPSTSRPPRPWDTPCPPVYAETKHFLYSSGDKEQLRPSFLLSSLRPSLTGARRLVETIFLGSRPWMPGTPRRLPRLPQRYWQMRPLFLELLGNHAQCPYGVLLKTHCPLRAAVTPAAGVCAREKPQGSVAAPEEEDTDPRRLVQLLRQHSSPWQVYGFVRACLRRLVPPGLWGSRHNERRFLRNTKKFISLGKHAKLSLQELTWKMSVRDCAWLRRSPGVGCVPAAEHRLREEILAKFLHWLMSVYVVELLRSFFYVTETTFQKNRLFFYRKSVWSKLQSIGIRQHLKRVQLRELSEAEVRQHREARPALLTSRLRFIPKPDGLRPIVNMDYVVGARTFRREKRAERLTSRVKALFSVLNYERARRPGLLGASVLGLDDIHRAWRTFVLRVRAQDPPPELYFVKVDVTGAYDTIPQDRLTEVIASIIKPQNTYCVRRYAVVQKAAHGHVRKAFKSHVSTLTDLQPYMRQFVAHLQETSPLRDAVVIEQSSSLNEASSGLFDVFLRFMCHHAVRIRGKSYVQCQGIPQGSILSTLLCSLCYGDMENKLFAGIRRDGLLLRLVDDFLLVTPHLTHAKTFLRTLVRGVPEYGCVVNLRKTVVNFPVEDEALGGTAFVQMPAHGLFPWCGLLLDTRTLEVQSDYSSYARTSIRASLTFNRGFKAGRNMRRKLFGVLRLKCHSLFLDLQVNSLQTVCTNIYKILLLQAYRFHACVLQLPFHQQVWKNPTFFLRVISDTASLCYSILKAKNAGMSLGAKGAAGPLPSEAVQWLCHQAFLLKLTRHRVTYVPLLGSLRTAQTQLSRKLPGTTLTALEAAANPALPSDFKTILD

| SMILES | inhibition [1] [%] | IC50 [2] [µM] |
| --- | --- | --- |
| O=C(Cc1cn(CCn2ccc3cc(Cl)ccc32)c2ccccc12)NCCCCCCCCCCCCOP(=O)(O)Oc1cccc(Cl)c1 | – | 2.5 |
| Cc1cn(CCCn2cc(CC(=O)NCCCCCCCCCCCCOP(=O)(O)Oc3cccc(Cl)c3)c3ccccc32)c2ccccc12 | – | 3.4 |
| N#CCCOP(=O)(OCCCCCCCCCCCCNC(=O)Cc1cn(CCn2ccc3cc(Cl)ccc32)c2ccccc12)Oc1cccc(Cl)c1 (configuration not stated) | – | > 100 |
| O=C(O)CCCCCCCCCCCNC(=O)COc1c(-c2cc3ccccc3[nH]2)[nH]c2ccccc12 | – | > 100 |
| O=C(Cc1cn(CCn2ccc3cc(Cl)ccc32)c2ccccc12)NCCCCCCCCCCCCOP(=O)(O)Oc1ccccc1 | – | 6.7 |
| N#CCCOP(=O)(O)OCCCCCCCCCCCCNC(=O)Cc1cn(CCn2ccc3cc(Cl)ccc32)c2ccccc12 | – | > 100 |
| O=C(O)CCCCCCCCCCCNC(=O)Cc1cn(CCCOC2CCCCC2)c2ccccc12 | 75 | 67 |
| Cc1cn(CCCn2cc(CC(=O)NCCCCCCCCCCCCOP(=O)(OCCC#N)Oc3cccc(Cl)c3)c3ccccc32)c2ccccc12 (configuration not stated) | – | > 100 |
| O=C(Cc1cn(CCn2ccc3cc(Cl)ccc32)c2ccccc12)NCCCCCCCCCCCCOP(=O)(O)OC1CCCCC1 | – | 8.7 |

Now from value to compound:

| inhibition [1] [%] | IC50 [2] [µM] | SMILES |
| --- | --- | --- |
| 0 | – | O=C(O)CCCCCCCCCCCNC(=O)Cc1cn(CCOc2ccccc2)c2ccccc12 |
| – | 4.2 | O=C(Cc1cn(CCCn2cccc2)c2ccccc12)NCCCCCCCCCCCOP(=O)(O)c1ccccc1Cl |
| 77 | 41 | O=C(O)CCCCCCCCCCCNC(=O)Cc1cn(CCn2ccc3ccccc32)c2ccccc12 |
| 75 | 33 | O=C(O)CCCCCCCCCCCNC(=O)Cc1cn(CCCOc2ccccc2)c2ccccc12 |
| 100 | 20 | Cc1cn(CCCn2cc(CC(=O)NCCCCCCCCCCCC(=O)O)c3ccccc32)c2ccccc12 |
| 0 | > 100 | O=C(O)CCCCCCCCCCCNC(=O)Cc1cn(CCCn2cccc2)c2ccccc12 |
| 62 | 62 | O=C(O)CCCCCCCCCCCNC(=O)Cc1c2n(c3ccccc13)CCn1c-2cc2ccccc21 |
| 13 | > 100 | O=C(O)CCCCCCCCCCCNC(=O)Cc1cn(CCCN2CCCC2)c2ccccc12 |
| 7 | > 100 | Cc1cn(CCn2cc(CC(=O)NCCCCCCCCCCCC(=O)O)c3ccccc32)c2ccccc12 |
| 65 | 35 | O=C(O)CCCCCCCCCCCNC(=O)Cc1cn(CCOc2cccc3ccccc23)c2ccccc12 |
| 46 | 92 | O=C(O)CCCCCCCCCCCNC(=O)Cc1cn(CCCn2ccc3ccccc32)c2ccccc12 |
| 82 | 50 | Cc1c2n(c3ccccc13)CCCn1c-2c(CC(=O)NCCCCCCCCCCCC(=O)O)c2ccccc21 |

From ChEMBL document CHEMBL1134205, “Development of novel telomerase inhibitors based on a bisindole unit” (Bioorg Med Chem Lett, 2001)
